Laboratory results taken from ChEMBL document CHEMBL1201862, “PubChem BioAssay data set” (2004).
Calls of active or inactive are those of the source. The rule behind the calls is not given here.

What was measured:
[1] = biological target: T1, High affinity choline transporter 1 (Homo sapiens, UniProt Q9GZV3); test: human choline transporter blockers, potency – cell-based, 5-point CRC, membrane potential dye, dose response (AID 504840); type: functional
T1 sequence (Q9GZV3 whole entry): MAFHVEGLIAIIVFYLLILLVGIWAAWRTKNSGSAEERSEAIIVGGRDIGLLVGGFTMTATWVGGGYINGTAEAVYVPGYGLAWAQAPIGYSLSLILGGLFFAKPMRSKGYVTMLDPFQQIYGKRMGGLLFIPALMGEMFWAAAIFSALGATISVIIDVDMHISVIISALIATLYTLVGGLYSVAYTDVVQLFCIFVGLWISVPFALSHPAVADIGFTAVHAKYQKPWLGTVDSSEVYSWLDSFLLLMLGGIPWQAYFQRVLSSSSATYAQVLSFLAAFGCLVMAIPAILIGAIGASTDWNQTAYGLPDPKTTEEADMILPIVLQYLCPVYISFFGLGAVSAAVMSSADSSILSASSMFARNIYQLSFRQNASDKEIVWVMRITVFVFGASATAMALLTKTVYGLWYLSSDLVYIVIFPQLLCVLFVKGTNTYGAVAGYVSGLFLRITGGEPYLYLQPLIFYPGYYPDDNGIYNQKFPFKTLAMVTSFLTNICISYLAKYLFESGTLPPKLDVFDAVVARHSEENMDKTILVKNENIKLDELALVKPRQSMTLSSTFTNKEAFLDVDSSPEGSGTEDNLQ

[2] = biological target: T1, High affinity choline transporter 1; test: human choline transporter blockers, potency – cell-based, 10-point CRC, membrane potential dye, dose response (AID 588401); type: functional;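 note: membrane potential dye fluorescence of choline-evoked depolarization via CHT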

IC50 [1]: 7.88 µM (active)
IC50 [2]: 4.28 µM (active)
Structure (SMILES): CCOc1ccccc1Nc1ccc2nonc2c1[N+](=O)[O-]
